# Assay results as given in patent publication US20120004228A1, “Bis Aromatic Compounds for Use as LTC4 Synthase Inhibitors” (BIOLIPOX AB, priority 2009, published 2012).
# Target: T1, Recombinant human LTC4 synthase (Homo sapiens, UniProt Q16873)
# T1 construct: made in house; host or cells: Pichia pastoris ('Piccia pastoralis' [sic])
# T1 sequence (Q16873 1-150): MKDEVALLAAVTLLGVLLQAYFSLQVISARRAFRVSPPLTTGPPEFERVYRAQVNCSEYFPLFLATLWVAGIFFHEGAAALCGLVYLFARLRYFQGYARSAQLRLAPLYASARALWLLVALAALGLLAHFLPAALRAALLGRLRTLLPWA
# Assay: In vitro LTC4 synthase assay (LTA4 to LTC4, HTRF detection)
# Format: biochemical
# Conditions: not given
# Description: In the assay, LTC4 synthase catalyses the reaction where the substrate LTA4 is converted to LTC4. Recombinant human LTC4 synthase is expressed in Piccia pastoralis and the purified enzyme is dissolved in 25 mM tris-buffer pH 7.8 supplemented with 0.1 mM glutathione (GSH) and stored at −80° C. The assay is performed in phosphate buffered saline (PBS) pH 7.4 and 5 mM GSH in 384-well plates.
# The following is added chronologically to each well:
# 1. 48 μL LTC4 synthase in PBS with 5 mM GSH. The total protein concentration in this solution is 0.5 μg/mL. 2. 1 μL inhibitor in DMSO (final concentration 10 μM). 3. Incubation of the plate at room temperature for 10 min. 4. 1 μL LTA4 (final concentration 2.5 μM). 5. Incubation of the plate at room temperature for 5 min. 6. 10 μL of the incubation mixture is analysed using homogenous time resolved fluorescent (HTRF) detection.
row,Compound,IC50 [nM]
1,"CN(c1ccc(Cl)cc1)c1ccc(C(=O)c2cc(NCc3ccccc3)cc(C(=O)O)c2)cc1 [10:10, 3-Benzylamino-5-{4-[(4-chlorophenyl)(methyl)amino]benzoyl}benzoic acid]",360
2,"CN(c1ccc(Cl)cc1)c1ccc(C(=O)c2cc(C(=O)O)cc(N3CCCCC3)c2)nc1 [9:37, 3-{5-[(4-Chlorophenyl)(methyl)amino]picolinoyl}-5-(1-piperidinyl)benzoic acid]",506
3,"CCCCCCC(=O)Nc1ccc(C(=O)c2ccc(Nc3ccc(Cl)cc3)cc2C(=O)O)cc1 [Example 4:1, 5-(4-Chlorophenylamino)-2-(4-heptylamidobenzoyl)benzoic acid]",646
4,"COCC(=O)N(c1ccccc1)c1cc(C(=O)O)cc(C(=O)c2ccc(N(C)c3ccc(Cl)cc3)cn2)c1 [9:26, 3-{5-[(4-Chlorophenyl)(methyl)amino]picolinoyl}-5-(2-methoxy-N-phenylacet-amido)benzoic acid]",466
5,"CN(c1ccc(Cl)cc1)c1ccc(C(=O)c2cc(C(=O)O)cc(N3CCc4ccccc4C3)c2)nc1 [9:13, 3-{5-[(4-Chlorophenyl)(methyl)amino]picolinoyl}-5-(1,2,3,4-tetrahydroiso-quinolin-2-yl)benzoic acid]",531
6,"CN(c1ccc(Cl)cc1)c1ccc(C(=O)c2cc(NC(=O)c3cccc(Cl)c3)cc(C(=O)O)c2)nc1 [2:9, 3-(3-Chlorobenzamido)-5-{5-[(4-chlorophenyl)(methyl)amino]picolinoyl}benzoic acid]",276
7,"CN(c1ccc(Cl)cc1)c1ccc(C(=O)c2cc(Oc3ccc(C#N)cc3)cc(C(=O)O)c2)nc1 [8:7, 3-{5-[(4-Chlorophenyl)(methyl)amino]picolinoyl}-5-(4-cyanophenoxy)benzoic acid]",274
8,"CN(c1ccc(Cl)cc1)c1ccc(C(=O)c2cc(C(=O)O)cc(N(C(=O)C3CCC3)c3ccccc3)c2)cc1 [Example 10:31, 3-{4-[(4-Chlorophenyl)(methyl)amino]benzoyl}-5-[(N-phenyl)cyclobutylcarboxamido]benzoic acid]",277
9,"CN(c1ccc(Cl)cc1)c1ccc(C(=O)c2cc(C(=O)O)cc(N(CC3CCCO3)c3ccccc3)c2)nc1 (centres unmarked) [9:41, 3-{5-[(4-Chlorophenyl)(methyl)amino]picolinoyl}-5-{phenyl[(2-tetrahydrofuryl)-methyl]amino}benzoic acid]",164
10,"COc1ccc(NC(=O)c2cc(C(=O)O)cc(C(=O)c3ccc(N(C)c4ccc(Cl)cc4)cc3)c2)cc1OC [2:14, 3-{4-[(4-Chlorophenyl)(methyl)amino]benzoyl}-5-(3,4-dimethoxyphenyl-carbamoyl)benzoic acid]",925
11,"CN(c1ccc(Cl)cc1)c1ccc(C(=O)c2cc(NC(=O)c3cccc(C(F)(F)F)c3)cc(C(=O)O)c2)nc1 [Example 2:7, 3-{5-[(4-Chlorophenyl)(methyl)amino]picolinoyl}-5-[3-(trifluoromethyl)benzamido]-benzoic acid]",549
12,"CN(c1ccc(Cl)cc1)c1ccc(C(=O)c2cc(C(=O)O)cc(N(C(=O)CO)c3ccccc3)c2)nc1 [9:38, 3-{5-[(4-Chlorophenyl)(methyl)amino]picolinoyl}-5-(2-hydroxy-N-phenylacet-amido)benzoic acid]",470
13,"CN(c1ccc(Cl)cc1)c1ccc(C(=O)c2cc(C(=O)O)cc(N(C(=O)C3CCOCC3)c3ccccc3)c2)cc1 [10:34, 3-{4-[(4-Chlorophenyl)(methyl)amino]benzoyl}-5-[(N-phenyl)-4-tetrahydro-pyrancarboxamido]benzoic acid]",807
14,"CN(c1ccc(Cl)cc1)c1ccc(C(=O)c2cc(Nc3ccc4c(c3)OCCO4)cc(C(=O)O)c2)nc1 [9:33, 3-{5-[(4-Chlorophenyl)(methyl)amino]picolinoyl}-5-(3,4-ethylenedioxy-phenylamino)benzoic acid]",463
15,"CN(c1ccc(Cl)cc1)c1ccc(C(=O)c2cc(OCc3cccc(F)c3)cc(C(=O)O)c2)nc1 [11:4, 3-{5-[(4-Chlorophenyl)(methyl)amino]picolinoyl}-5-(3-fluorobenzyloxy)benzoic acid]",454
16,"CN(c1ccc(Cl)cc1)c1ccc(C(=O)c2cc(C(=O)O)cc(N(C)C3CCOCC3)c2)cc1 [10:22, 3-{4-[(4-Chlorophenyl)(methyl)amino]benzoyl}-5-[methyl(4-tetrahydropyranyl)-amino]benzoic acid]",252
17,"CN(c1ccc(Cl)cc1)c1ccc(C(=O)c2cc(Nc3ccc4c(c3)OCO4)cc(C(=O)O)c2)nc1 [9:29, 3-{5-[(4-Chlorophenyl)(methyl)amino]picolinoyl}-5-(3,4-methylenedioxy-phenylamino)benzoic acid]",420
18,CN(c1ccc(Cl)cc1)c1ccc(C(=O)c2cc(C(=O)O)cc(C(=O)Nc3ccccc3)c2)cc1 [Example 2:11],694

# Continued, values first:
row,IC50 [nM],Compound
1,40,"CN(c1ccc(Cl)cc1)c1ccc(C(=O)c2cc(C(=O)O)cc(N(C)c3ccc(Cl)cc3Cl)c2)cc1 [10:13, 3-{4-[(4-Chlorophenyl)(methyl)amino]benzoyl}-5-[(2,4-dichlorophenyl)-(methyl)amino]benzoic acid]"
2,25,"CN(c1ccc(Cl)cc1)c1ccc(C(=O)c2cc(C(=O)O)cc(N(CC3CCCCO3)c3ccccc3)c2)cc1 (centres unmarked) [10:36, 3-{4-[(4-Chlorophenyl)(methyl)amino]benzoyl}-5-{pheny[(tetrahydropyran-2-yl)methyl]amino}benzoic acid]"
3,109,"CN(c1ccc(Cl)cc1)c1ccc(C(=O)c2cc(Oc3ccc4c(c3)OCO4)cc(C(=O)O)c2)cc1 [8:12, 5-{4-[(4-Chlorophenyl)(methyl)amino]benzoyl}-3-(3,4-methylenedioxyphenoxy)-benzoic acid]"
4,41,"CN(c1ccc(Cl)cc1)c1ccc(C(=O)c2cc(C(=O)O)cc(N(C)c3ccc(Cl)cc3)c2)cc1 [Example 10:1, 3-[(4-Chlorophenyl)(methyl)amino]-5-{4-[(4-chlorophenyl)(methyl)amino]benzoyl}-benzoic acid]"
5,30,"O=C(O)c1cc(Nc2ccccc2)cc(C(=O)c2ccc(N(CC3CC3)c3ccc(Cl)cc3)cn2)c1 [9:20, 3-{5-[(4-Chlorophenyl)(cyclopropylmethyl)amino]picolinoyl}-5-(phenylamino)-benzoic acid]"
6,59,"CN(c1ccc(Cl)cc1)c1ccc(C(=O)c2cc(Oc3cccc(F)c3)cc(C(=O)O)c2)cc1 [8:13, 3-{4-[(4-Chlorophenyl)(methyl)amino]benzoyl}-5-(3-fluorophenoxy)benzoic acid]"
7,118,"CN(c1ccc(Cl)cc1)c1ccc(C(=O)c2cc(NCc3ccc(Cl)cc3)cc(C(=O)O)c2)cc1 [10:20, 3-(4-Chlorobenzylamino)-5-{4-[(4-chlorophenyl)(methyl)amino]benzoyl}-benzoic acid]"
8,41,"CN(c1ccc(Cl)cc1)c1ccc(C(=O)c2cc(Oc3ccc(F)c(F)c3)cc(C(=O)O)c2)nc1 [8:2, 3-{5-[(4-Chlorophenyl)(methyl)amino]picolinoyl}-5-(3,4-difluorophenoxy)-benzoic acid]"
9,147,"CN(c1ccc(Cl)cc1)c1ccc(C(=O)c2cc(C(=O)O)cc(N(C)c3cccc(Cl)c3)c2)nc1 [Example 9:1, 3-[(3-Chlorophenyl)(methyl)amino]-5-{5-[(4-chlorophenyl)(methyl)amino]-picolinoyl}benzoic acid]"
10,76,"COCCN(c1cc(C(=O)O)cc(C(=O)c2ccc(N(C)c3ccc(Cl)cc3)cc2)c1)c1ccccc1F [10:25, 3-{4-[(4-Chlorophenyl)(methyl)amino]benzoyl}-5-[(2-fluorophenyl)(2-methoxy-ethyl)amino]benzoic acid]"
11,160,"CN(c1ccc(Cl)cc1)c1ccc(C(=O)c2cc(C(=O)O)cc(N(C(=O)CC(C)(C)C)c3ccccc3)c2)nc1 [9:18, 3-{5-[(4-Chlorophenyl)(methyl)amino]picolinoyl}-5-(3,3-dimethyl-N-phenyl-butylamido)benzoic acid]"
12,33,"CN(c1ccc(Cl)cc1)c1ccc(C(=O)c2cc(C(=O)O)cc(N(C)c3ccccc3)c2)nc1 [9:6, 3-{5-[(4-Chlorophenyl)(methyl)amino]picolinoyl}-5-[methyl(phenyl)amino]-benzoic acid]"
13,137,"COc1ccc(N(C)c2cc(C(=O)O)cc(C(=O)c3ccc(N(C)c4ccc(Cl)cc4)cn3)c2)cc1 [9:28, 3-{5-[(4-Chlorophenyl)(methyl)amino]picolinoyl}-5-[(4-methoxyphenyl)(methyl)-amino]benzoic acid]"
14,147,"CN(c1ccc(Cl)cc1)c1ccc(C(=O)c2cc(C(=O)O)cc(N(CC3CCC3)c3ccccc3)c2)cc1 [10:30, 3-{4-[(4-Chlorophenyl)(methyl)amino]benzoyl}-5-[(cyclobutylmethyl)(phenyl)-amino]benzoic acid]"
15,33,"CCN(c1ccccc1)c1cc(C(=O)O)cc(C(=O)c2ccc(N(C)c3ccc(Cl)cc3)cc2)c1 [10:19, 3-{4-[(4-Chlorophenyl)(methyl)amino]benzoyl}-5-[ethyl(phenyl)amino]benzoic acid]"
16,70,"CN(c1ccc(Cl)cc1)c1ccc(C(=O)c2cc(C(=O)O)cc(N(CCCCO)c3ccc4c(c3)OCCO4)c2)nc1 [9:35, 3-{5-[(4-Chlorophenyl)(methyl)amino]picolinoyl}-5-[(3,4-ethylenedioxyphenyl)-(4-hydroxybutyl)amino]benzoic acid]"

# Same assay, conditions: 5 min; total concentration of title compound in the assay 10 μM
row,inhibition at 10 µM [%],Compound
1,98,"CCCCCCC(=O)Nc1ccc(C(=O)c2ccc(Nc3ccc(Cl)cc3)cc2C(=O)O)cc1 [Example 4:1, 5-(4-Chlorophenylamino)-2-(4-heptylamidobenzoyl)benzoic acid]"
